According to patent publication US20220169632A1, “METHODS AND MATERIALS FOR INCREASING OR MAINTAINING NICOTINAMIDE MONONUCLEOTIDE ADENYLYL TRANSFERASE-2 (NMNAT2) POLYPEPTIDE LEVELS” (University of Pittsburgh - Of the Commonwealth System of …, priority 2019, published 2022):

Experiments:
NMNAT2-V5 polypeptide = NMNAT2-V5 polypeptide expression in transfected Beas2B cells (Western blot), dose dependent, 24 h; type: cell-based; details: Beas2B cells transfected with NMNAT2-V5 plasmid, compound for 24 hours, read-out: A: compound efficacy (IC50) for NMNAT2 activation
Description: FIG. 1. Beas2B cells were transfected with NMNAT2-V5 plasmid. 24 hours later, cells were treated with compounds in a dose dependent manner (0, 1, 5, and 25 μM) for additional 24 hours. Cells were then collected and assayed for NMNAT2-V5 protein expression.
Selected compounds were tested in vitro. Briefly, Beas2B cells were transfected with NMNAT2-V5 plasmid. 24 hours later, cells were treated with a test compound in a dose dependent manner for additional 24 hours. Cells were then collected and assayed for NMNAT2-V5 polypeptide expression. Results of the assay are shown in Table A. Western blots showing levels of NMNAT2-V5 polypeptide for selected compounds are shown in FIG. 1.

NMNAT2 = experiment: NMNAT2-Hibit nano-luciferase activity in transfected U87MG cells, 5 μM, 48 hours; type: cell-based; details: NMNAT2-Hibit luciferase plasmid, 48 hours (Table D)
Description: Selected compounds were tested in vitro. Briefly, U87MG cells were transfected with NMNAT2-Hibit luciferase plasmid. Cells were treated with test compound at 5 μM for 48 hours. Cells were then collected and assayed for nano-luciferase activity.

Row | Compound | IC50 (NMNAT2-V5 polypeptide) | D: compound efficacy for NMNAT2 activation; increase in NMNAT2 luciferase activity (NMNAT2)
1 | O=C(COCc1cc(-c2cccs2)sn1)NCCN1CCC(Cc2ccccc2)CC1 [BC18115] | 5 to 25 µM | 
2 | O=C(COc1ccc(F)cc1)N1CCN(Cc2cccc(-c3n[nH]c(-c4cccc(Cl)c4)n3)c2)CC1 [BC18124] | < 5 µM | 
3 | Cc1cc(C)n(CC(=O)NCc2ccco2)c(=O)c1C#N [BC18128] | < 5 µM | 
4 | CC(=O)Nc1ccc(NC(=O)c2ccccc2OCc2nc(-c3ccc(C)cc3)ns2)cc1 [BC18116] | ≥ 25 µM | 
5 | COc1ccc(OC)c(CCNC(=O)C(Cc2ccccc2)N2Cc3ccccc3C2=O)c1 (stereo not drawn) [BC18133] | 5 to 25 µM | 
6 | CC(=O)Nc1ccc(NC(=O)c2ccccc2OCc2nc(-c3ccc(C)cc3)ns2)cc1 [BC18137] | 5 to 25 µM | 
7 | COc1ccc(OC)c(CCNC(=O)C(Cc2ccccc2)N2Cc3ccccc3C2)c1 (stereo not drawn) [BC18117] | 5 to 25 µM | 
8 | O=C(Cn1ccc2ccc(F)cc21)NCc1ccco1 [BC18126] | < 5 µM | 
9 | O=C(COCc1cc(-c2cccs2)sn1)NCCN1CCC(Cc2ccccc2)CC1 [BC18136] | ≥ 25 µM | 
10 | Cc1ccc2onc(CNC(=O)NCc3ccccn3)c2c1 [BC18129] | 5 to 25 µM | 
11 | O=C(COc1nc2cc(C(=O)NCc3ccc(F)cc3)ccc2c(=O)n1CCOO)c1ccc(O)cc1 [BC18132] | < 5 µM | 
12 | N#Cc1nc(-c2ccc(COc3ccccc3)s2)sc1OCCc1ccc(ON)cc1 [BC18135] | ≥ 25 µM | 
13 | O=C(Cn1c(=O)[nH]c2ccccc2c1=O)NCc1ccncc1 [BC18122] | 5 to 25 µM | 
14 | COc1cccc(NS(=O)(=O)c2ccc3[nH]cc(C(=O)NC(C)c4ccc5c(c4)OCCO5)c(=O)c3c2)c1 (stereo not drawn) [BC18134] | ≥ 25 µM | 
15 | O=C(CCc1nnc2n(Cc3ccccc3)c(=O)c3ccccc3n12)N1CCN(CCOc2ccc(Cl)cc2)CC1 [BC18120] | < 5 µM | 
16 | COc1ccc(OCC(=O)Nc2ccc3c(c2)nc(CCNC(=O)c2cccs2)n3C)cc1 [BC18118] | ≥ 25 µM | 
17 | CN(CCc1nsc(-c2ccc(C(=O)NCc3ccc4c(c3)OCO4)cc2)n1)C(=O)c1ccccc1 [BC18121] | ≥ 25 µM | 
18 | CCn1cc(C(=O)NC(C)c2ccc3c(c2)OCCO3)c(=O)c2cc(S(=O)(=O)N3CCc4ccccc4C3)ccc21 (stereo not drawn) [BC18131] | 5 to 25 µM | 
19 | COc1ccc(OC)c(CCNC(=O)C(Cc2ccccc2)N2Cc3ccccc3C2=O)c1 (stereo not drawn) [BC18138] | 5 to 25 µM | 
20 | O=C(CSC1=Nc2ccccc2C2=NC(CCC(=O)N3CCN(c4ccccc4)CC3)C(=O)C12)NCC1CCCO1 (stereo not drawn) [BC18130] | 5 to 25 µM | 
21 | Cc1ccc2onc(CNC(=O)NCc3cccc(Cl)c3)c2c1 [BC18125] | < 5 µM | 
22 | Cc1n[nH]c(/C=C/c2ccc(N)cc2)c1S(=O)(=O)N1CCC(C(=O)N2CCN(Cc3ccc4c(c3)OCO4)CC2)CC1 [BC18123] | < 5 µM | 
23 | Cc1ccccc1Cn1cc(CCC(=O)NCc2ccco2)c2ccccc21 [BC181241] |  | + (“+” <20% increase in NMNAT2 luciferase activity.)
24 | Cc1ccc(NC(=O)Cn2cc(C(=O)c3ccccc3)c3ccccc32)cc1 [BC181209] |  | + (“+” <20% increase in NMNAT2 luciferase activity.)
25 | CC(NC(=O)Cn1cc(C(=O)c2ccccc2)c2ccccc21)c1ccccc1 (stereo not drawn) [BC181224] |  | + (“+” <20% increase in NMNAT2 luciferase activity.)
26 | O=C(Cn1ccc2ccc(F)cc21)NCc1ccccn1 [BC18127] | 5 to 25 µM | 
27 | CCC(=O)c1cn(CC(=O)NCc2cccnc2)c2ccccc12 [BC181226] |  | + (“+” <20% increase in NMNAT2 luciferase activity.)
28 | CC(NC(=O)Cn1cc(C(=O)C2CCCCC2)c2ccccc21)c1ccccc1 (stereo not drawn) [BC181225] |  | + (“+” <20% increase in NMNAT2 luciferase activity.)
29 | Cc1ccc(Cn2cc(C(CC(=O)NCc3ccco3)c3ccc(C)cc3)c3ccccc32)cc1 (stereo not drawn) [BC181262] |  | ++ (“++” >20% and <100% increase in NMNAT2 luciferase activity.)
30 | O=C(Cn1cc(C(=O)c2ccncc2)c(=O)c2cc(F)ccc21)NCc1ccccc1 [BC181253] |  | ++ (“++” >20% and <100% increase in NMNAT2 luciferase activity.)
